From the supplement of paper PMC12463676, “Small-molecule dissolution of stress granules by redox modulation benefits ALS models” (Nature Chemical Biology, 2025)

How the values were obtained:
[1] = compound: O=[As]([O-])(O)O.[K+] [potassium arsenate]; assay: thermal stability z-score vs DMSO; higher = more thermally stabilized by treatment; details: HeLa; arsenate concentration 1 mM
Description: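 Cellular thermal proteome profiling in HeLa cells treated with 1 mM arsenate for 1 h (DMSO pretreatment), heated to ten temperatures (37-66.3 °C). Soluble protein was quantified by TMT mass spectrometry relative to DMSO controls; the thermal stability score was transformed to a z-score; mean of n = 3 experiments.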

[2] = compound: NC(=O)CCCCC1CCSS1 [lipoamide]; assay: as above; details: HeLa, lipoamide concentration 100 µM
Description: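 Cellular thermal proteome profiling in HeLa cells. Cells were treated with 100 µM lipoamide for 1 h, with or without 1 mM arsenate for a further 1 h, then heated to ten temperatures (37-66.3 °C), and soluble protein was quantified by TMT mass spectrometry relative to 0.1% DMSO controls. The thermal stability score (sum of log2 fold changes minus the abundance score) was transformed to a z-score; mean of n = 3 experiments.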

[3] = arsenate co-treatment: 1 mM arsenate 1 h
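Note: each temperature applied for 3 min, abundance score taken as mean log2 fold change at the two lowest temperatures, z-score obtained by mean subtraction and division by SD.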

UniProt O14548, sequence (O14548 whole entry): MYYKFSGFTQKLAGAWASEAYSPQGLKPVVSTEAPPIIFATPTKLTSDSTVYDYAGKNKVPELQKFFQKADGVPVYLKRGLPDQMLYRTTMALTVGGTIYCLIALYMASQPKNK
UniProt Q99627, sequence (Q99627 whole entry): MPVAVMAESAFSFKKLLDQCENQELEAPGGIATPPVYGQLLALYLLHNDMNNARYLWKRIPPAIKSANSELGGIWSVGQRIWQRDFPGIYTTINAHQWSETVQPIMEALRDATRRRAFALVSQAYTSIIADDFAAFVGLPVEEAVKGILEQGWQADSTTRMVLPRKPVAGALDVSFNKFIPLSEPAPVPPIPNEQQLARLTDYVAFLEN
UniProt Q92905, sequence (Q92905 whole entry, looked up): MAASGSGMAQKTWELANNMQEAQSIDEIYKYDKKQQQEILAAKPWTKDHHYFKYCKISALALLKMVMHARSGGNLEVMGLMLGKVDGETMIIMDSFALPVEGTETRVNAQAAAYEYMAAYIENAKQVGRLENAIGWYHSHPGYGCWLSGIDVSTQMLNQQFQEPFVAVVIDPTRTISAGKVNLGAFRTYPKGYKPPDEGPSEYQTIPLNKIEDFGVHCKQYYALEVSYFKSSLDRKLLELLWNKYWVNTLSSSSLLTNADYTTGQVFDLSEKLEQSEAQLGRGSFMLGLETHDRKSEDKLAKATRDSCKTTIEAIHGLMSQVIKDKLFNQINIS
UniProt Q7KZN9, sequence (Q7KZN9 whole entry): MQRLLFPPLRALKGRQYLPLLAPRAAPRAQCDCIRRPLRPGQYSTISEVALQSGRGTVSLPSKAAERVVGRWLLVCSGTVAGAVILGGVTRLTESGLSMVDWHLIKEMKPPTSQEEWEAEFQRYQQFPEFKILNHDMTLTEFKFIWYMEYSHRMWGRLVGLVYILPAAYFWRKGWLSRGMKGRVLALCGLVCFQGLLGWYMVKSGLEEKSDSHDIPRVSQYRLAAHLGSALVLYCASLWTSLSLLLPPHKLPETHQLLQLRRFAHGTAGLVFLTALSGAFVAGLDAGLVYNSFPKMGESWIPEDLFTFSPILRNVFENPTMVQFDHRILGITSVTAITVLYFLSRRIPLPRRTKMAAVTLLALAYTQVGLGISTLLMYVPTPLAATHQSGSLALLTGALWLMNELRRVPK
UniProt P53621, sequence (P53621 whole entry): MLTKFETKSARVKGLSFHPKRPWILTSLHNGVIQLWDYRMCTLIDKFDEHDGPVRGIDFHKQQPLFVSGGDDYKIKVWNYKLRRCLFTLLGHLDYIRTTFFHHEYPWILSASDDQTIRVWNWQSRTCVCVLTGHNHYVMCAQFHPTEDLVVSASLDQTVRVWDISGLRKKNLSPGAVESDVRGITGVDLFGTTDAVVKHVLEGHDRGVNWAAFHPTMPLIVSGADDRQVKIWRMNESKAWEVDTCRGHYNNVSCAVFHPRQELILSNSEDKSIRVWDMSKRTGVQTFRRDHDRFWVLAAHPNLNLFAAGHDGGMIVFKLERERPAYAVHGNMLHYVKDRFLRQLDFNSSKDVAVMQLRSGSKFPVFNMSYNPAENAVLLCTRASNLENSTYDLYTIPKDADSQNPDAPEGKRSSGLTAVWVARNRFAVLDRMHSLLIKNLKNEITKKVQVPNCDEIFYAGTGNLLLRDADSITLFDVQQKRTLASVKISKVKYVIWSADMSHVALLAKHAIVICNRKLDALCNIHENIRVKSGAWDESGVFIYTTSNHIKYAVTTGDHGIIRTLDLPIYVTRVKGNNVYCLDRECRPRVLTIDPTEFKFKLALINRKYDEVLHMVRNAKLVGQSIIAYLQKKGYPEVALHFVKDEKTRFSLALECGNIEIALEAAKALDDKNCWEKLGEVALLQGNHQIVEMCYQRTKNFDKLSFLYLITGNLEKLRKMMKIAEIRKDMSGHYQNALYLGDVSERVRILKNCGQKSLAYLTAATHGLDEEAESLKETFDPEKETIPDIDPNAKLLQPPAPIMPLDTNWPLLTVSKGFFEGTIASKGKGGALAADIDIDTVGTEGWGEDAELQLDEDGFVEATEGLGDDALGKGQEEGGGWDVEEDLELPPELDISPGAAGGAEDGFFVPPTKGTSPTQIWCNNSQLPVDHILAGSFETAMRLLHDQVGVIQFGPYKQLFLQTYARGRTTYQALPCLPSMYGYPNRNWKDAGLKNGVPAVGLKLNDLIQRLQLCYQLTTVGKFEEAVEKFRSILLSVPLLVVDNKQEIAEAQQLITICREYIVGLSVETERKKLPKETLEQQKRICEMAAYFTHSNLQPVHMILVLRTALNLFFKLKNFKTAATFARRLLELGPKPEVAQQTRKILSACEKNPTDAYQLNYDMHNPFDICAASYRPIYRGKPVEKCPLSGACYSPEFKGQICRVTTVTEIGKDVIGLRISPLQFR
UniProt P09669, sequence (P09669 whole entry): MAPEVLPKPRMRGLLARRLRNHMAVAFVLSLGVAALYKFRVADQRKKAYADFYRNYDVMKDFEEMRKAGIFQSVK
UniProt O14579, sequence (O14579 whole entry): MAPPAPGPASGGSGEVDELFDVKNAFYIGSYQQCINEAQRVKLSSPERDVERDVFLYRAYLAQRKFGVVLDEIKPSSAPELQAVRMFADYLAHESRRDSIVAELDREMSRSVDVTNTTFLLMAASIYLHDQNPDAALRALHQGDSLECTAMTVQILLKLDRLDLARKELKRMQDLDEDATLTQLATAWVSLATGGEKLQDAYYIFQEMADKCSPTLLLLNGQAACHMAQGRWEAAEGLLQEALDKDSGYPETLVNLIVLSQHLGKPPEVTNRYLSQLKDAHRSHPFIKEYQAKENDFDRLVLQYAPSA
UniProt P24311, sequence (P24311 whole entry): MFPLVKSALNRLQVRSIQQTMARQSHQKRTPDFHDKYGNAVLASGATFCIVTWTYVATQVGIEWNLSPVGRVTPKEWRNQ
UniProt Q14019, sequence (Q14019 whole entry): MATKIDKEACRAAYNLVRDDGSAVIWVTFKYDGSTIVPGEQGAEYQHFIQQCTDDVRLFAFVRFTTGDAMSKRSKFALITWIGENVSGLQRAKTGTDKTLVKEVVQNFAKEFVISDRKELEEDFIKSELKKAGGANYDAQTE
UniProt P35606, sequence (P35606 whole entry): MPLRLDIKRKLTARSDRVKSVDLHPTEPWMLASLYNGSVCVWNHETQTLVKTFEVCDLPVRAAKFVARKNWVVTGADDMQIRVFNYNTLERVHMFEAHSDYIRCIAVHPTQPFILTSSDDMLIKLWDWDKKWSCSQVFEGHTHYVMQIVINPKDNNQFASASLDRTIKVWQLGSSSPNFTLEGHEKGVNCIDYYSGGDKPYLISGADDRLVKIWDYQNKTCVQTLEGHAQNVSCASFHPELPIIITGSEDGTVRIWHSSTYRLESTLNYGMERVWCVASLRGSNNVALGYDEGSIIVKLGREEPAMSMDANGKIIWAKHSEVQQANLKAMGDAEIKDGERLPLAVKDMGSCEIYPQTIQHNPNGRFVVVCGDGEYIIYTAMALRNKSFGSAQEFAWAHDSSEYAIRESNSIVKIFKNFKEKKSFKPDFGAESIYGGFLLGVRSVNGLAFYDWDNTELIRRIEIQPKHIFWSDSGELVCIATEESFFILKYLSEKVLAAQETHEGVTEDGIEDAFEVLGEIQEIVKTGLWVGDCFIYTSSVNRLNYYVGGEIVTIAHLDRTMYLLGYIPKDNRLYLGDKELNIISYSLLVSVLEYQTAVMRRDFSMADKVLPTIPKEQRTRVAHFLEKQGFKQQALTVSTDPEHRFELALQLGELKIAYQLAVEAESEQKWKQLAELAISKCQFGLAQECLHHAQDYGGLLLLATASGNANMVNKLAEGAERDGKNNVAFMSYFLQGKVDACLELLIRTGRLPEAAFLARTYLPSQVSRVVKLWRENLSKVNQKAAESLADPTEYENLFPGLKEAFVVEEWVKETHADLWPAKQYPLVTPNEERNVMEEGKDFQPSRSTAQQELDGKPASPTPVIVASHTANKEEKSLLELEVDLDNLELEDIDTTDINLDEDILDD
UniProt Q9ULV4, sequence (Q9ULV4 whole entry): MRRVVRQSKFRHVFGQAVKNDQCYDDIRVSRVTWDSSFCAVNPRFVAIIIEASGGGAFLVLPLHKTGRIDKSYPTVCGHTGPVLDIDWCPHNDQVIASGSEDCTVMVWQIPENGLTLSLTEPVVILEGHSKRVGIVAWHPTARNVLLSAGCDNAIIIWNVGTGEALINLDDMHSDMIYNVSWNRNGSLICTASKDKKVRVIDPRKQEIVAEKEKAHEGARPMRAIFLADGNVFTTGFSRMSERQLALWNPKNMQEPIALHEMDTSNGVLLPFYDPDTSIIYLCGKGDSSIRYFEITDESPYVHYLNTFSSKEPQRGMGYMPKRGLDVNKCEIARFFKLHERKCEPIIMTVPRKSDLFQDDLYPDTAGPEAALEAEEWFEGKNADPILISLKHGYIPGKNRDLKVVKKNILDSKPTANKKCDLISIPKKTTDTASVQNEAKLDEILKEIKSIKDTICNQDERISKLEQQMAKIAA
UniProt Q5HYK3, sequence (Q5HYK3 whole entry): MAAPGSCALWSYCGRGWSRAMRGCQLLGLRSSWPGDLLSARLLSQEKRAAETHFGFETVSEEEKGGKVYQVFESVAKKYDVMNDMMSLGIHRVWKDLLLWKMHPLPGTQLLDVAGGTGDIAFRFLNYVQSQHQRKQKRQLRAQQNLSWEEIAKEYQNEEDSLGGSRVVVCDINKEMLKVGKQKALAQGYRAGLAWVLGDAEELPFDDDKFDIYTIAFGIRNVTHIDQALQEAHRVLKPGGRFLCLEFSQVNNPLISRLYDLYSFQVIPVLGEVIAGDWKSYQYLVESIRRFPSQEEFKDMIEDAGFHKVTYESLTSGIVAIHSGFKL
UniProt Q49B96, sequence (Q49B96 whole entry): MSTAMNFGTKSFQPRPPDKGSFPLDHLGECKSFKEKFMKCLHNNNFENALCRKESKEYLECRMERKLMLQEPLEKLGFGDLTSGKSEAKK
UniProt P20674, sequence (P20674 whole entry): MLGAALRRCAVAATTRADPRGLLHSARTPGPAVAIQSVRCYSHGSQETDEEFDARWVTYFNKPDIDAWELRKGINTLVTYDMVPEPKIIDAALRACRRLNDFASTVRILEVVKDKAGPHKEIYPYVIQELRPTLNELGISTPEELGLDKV

| Target | thermal stability z-score [1] | thermal stability z-score [2, 3] | thermal stability z-score ([2]; arsenate co-treatment: none) |
| --- | --- | --- | --- |
| COPA (UniProt P53621) | 0.594 | -0.0346 | 0.0865 |
| COPB1 (UniProt P53618) | 0.367 | 0.189 | 0.0616 |
| COPB2 (UniProt P35606) | 0.238 | 0.165 | -0.0303 |
| COPE (UniProt O14579) | 0.0279 | 0.165 | 0.681 |
| COPG1 (UniProt Q9Y678) | -0.32 | 0.243 | -0.177 |
| COPG2 (UniProt Q9UBF2) | 0.0479 | -0.16 | -0.253 |
| COPRS (UniProt Q9NQ92) | -0.822 | 0.227 | 0.791 |
| COPS2 (UniProt P61201) | 0.0289 | 0.538 | -0.0451 |
| COPS3 (UniProt Q9UNS2) | 0.344 | 0.508 | 0.201 |
| COPS4 (UniProt Q9BT78) | -0.453 | 0.298 | -0.0548 |
| COPS5 (UniProt Q92905) | 0.276 | 0.384 | -0.0535 |
| COPS6 (UniProt Q7L5N1) | -0.236 | 0.0852 | -0.522 |
| COPS7A (UniProt Q9UBW8) | -0.0728 | 0.334 | 0.0778 |
| COPS7B (UniProt Q9H9Q2) | -0.241 | -0.144 | -0.241 |
| COPS8 (UniProt Q99627) | 0.171 | 0.0678 | -0.053 |
| COPZ1 (UniProt P61923) | 0.734 | -0.374 | 0.0476 |
| COQ3 (UniProt Q9NZJ6) | 1.9 | 0.083 | 0.759 |
| COQ5 (UniProt Q5HYK3) | 1.52 | 0.471 | 0.639 |

| Target | thermal stability z-score [1] | thermal stability z-score [2, 3] | thermal stability z-score ([2]; arsenate co-treatment: none) |
| --- | --- | --- | --- |
| COQ6 (UniProt Q9Y2Z9) | -2.7 | 1.2 | -0.131 |
| COQ7 (UniProt Q99807) | 0.227 | -0.0244 | 0.331 |
| COQ9 (UniProt O75208) | 1.61 | -0.364 | -0.531 |
| CORO1B (UniProt Q9BR76) | -0.66 | -0.396 | -0.129 |
| CORO1C (UniProt Q9ULV4) | 1.13 | -1.05 | -0.614 |
| CORO7 (UniProt P57737) | -0.177 | 0.188 | 0.174 |
| COTL1 (UniProt Q14019) | 0.699 | 0.575 | 1.02 |
| COX4I1 (UniProt P13073) | 0.514 | 0.239 | 0.296 |
| COX5A (UniProt P20674) | 1.36 | 2.24 | 1.82 |
| COX5B (UniProt P10606) | -0.926 | 1.26 | 1.21 |
| COX6B1 (UniProt P14854) | -0.234 | 0.898 | 0.644 |
| COX6C (UniProt P09669) | 0.836 | 0.703 | 0.431 |
| COX7A2L (UniProt O14548) | -0.221 | 0.761 | 0.522 |
| COX7B (UniProt P24311) | -0.0702 | -0.0929 | -0.0319 |
| COX11 (UniProt Q9Y6N1) | 0.0514 | 0.0437 | -0.0617 |
| COX15 (UniProt Q7KZN9) | 0.257 | -0.206 | -0.206 |
| COX17 (UniProt Q14061) | -2.23 | -0.762 | -2.24 |
| COX19 (UniProt Q49B96) | 0.412 | 0.659 | 0.945 |
